The numbers were not newly measured in US20010006974A1, “COMBINATION THERAPY FOR LYMPHOPROLIFERATIVE DISEASES” (priority 1999, published 2001), which cites them from elsewhere.

For one data set, the system named is bcl-2. The following applies: correlated with theophylline-induced apoptosis.
The test system of a further data set is cAMP. Conditions: correlated with theophylline-induced apoptosis.
The next data set relates to refractory lymphomas. The following applies: monotherapy; 5 mg/m^2 for 3 consecutive day every 3 weeks.
Data set [1] concerns refractory/relapsed B-CLL. The following applies: refractory/relapsed B-CLL patients.

On to `Cn1c(=O)c2[nH]cnc2n(C)c1=O` [theophylline], for which the bcl-2 regulation result with bcl-2 is listed as “down-regulation”. In addition, the “activity as a single agent” value in the data set on alkylator-refractory CLL is “no activity”. In addition, the “intracellular level of cAMP” value in the data set on cAMP is “increased”.

Consider `OC[C@H]1O[C@@H](n2cnc3c2NC=NC[C@H]3O)C[C@@H]1O` [pentostatin, 2′-deoxycoformycin], for which the results for the response rate (in the data set with refractory lymphomas; in data set [1]) were 32% and 30%, respectively.
